The source of these data is US5112835A, “6-substituted acyclopyrimidine nucleoside derivatives and antiviral agents containing the same as active ingredient thereof” (Mitsubishi Kasei Corporation, priority 1988, dated 1992).

Data set [1] deals with HIV. As to the kind of experiment: Inhibitory activity for HIV infection (preventing the death of 50% of the MT-4 cells). Type of data set: cell-based. As to conditions: Human immunodeficiency virus 1, MT4, 120 h, 5 days of incubation, 37° C., read-out: 50% inhibitory concentration of HIV infection. The method, then:
(§1) In RPMI 1640 DM culture medium containing 20 mM of Hepes buffer solution, 10% fetal bovine serum and 20 µg/ml of gentamycin, 3×10^4 MT-4 cells (human T cell clone which is destroyed by the infection of HIV) were infected with HIV in an amount of 100 times as large as expected to cause 50% infection of the cells. Immediately thereafter, a predetermined amount of sample was added to the culture medium using 50 mg/ml sample solutions in dimethyl sulfoxide and the cells were cultured at 37° C.
(§2) After 5 days of incubation, the number of existing cells was counted to determine the concentration of the compound for preventing the death of 50% of the MT-4 cells. Separately, MT-4 cells were cultured in the same way as above except that they were not infected with HIV to determine the concentration of the compound at which 50% of the MT-4 cells were destroyed.

Data set [2] can be described thus: Cytotoxicity to MT-4 cells (not infected with HIV). In kind it is cell-based. The settings on record: human, 5 days, 37° C., read-out: 50% cytotoxic concentration to MT-4 cells. The method, then:
as §1, §2

The test system of data set [3] is HIV. The experiment in a line: Inhibitory activity for HIV proliferation (HIV antigen expression in HUT-78 cells, indirect immunofluorescence assay). In kind it is cell-based. The method, then: In the same culture as that for the MT-4 cells, HUT-78 cells (human T cell clone which is not destroyed by the infection of HIV and releases HIV) were infected with HIV in an amount of 0.4 HIV per HUT-78 cell. Immediately thereafter, a predetermined concentration of 1-[(2-hydroxyethoxy)methyl]-6-phenylthiothymine was added to the culture medium and the cells were cultured at 37° C.
Every four days, 3/4 of the culture solution was exchanged and after 12 days of incubation the number of the cells positive to an HIV antigen was counted by indirect immunofluorescence assay using HIV antiserum (positive to the coating protein and core protein of HIV) which had been obtained from an HIV-infected patient.
For comparison, a similar experiment was carried out by using 2',3'-dideoxyadenosine.

Data set [4] has as its system HUT-78 cells. As to the kind of experiment: Toxicity to HUT-78 cells. Type of data set: cell-based, human. As to conditions: 100 μM.
Data set [5] has as its system host cell. As to conditions: background art statement; clinical treatment of HIV-infection; cited from earlier work.

As for `COc1cccc(Sc2c(C)c(=O)[nH]c(=O)n2COCCO)c1` [compound 13], the IC50 in data set [1] amounted to 22 µM. In data set [2], the CC50 at 120 h is above 250 µM.

With `Nc1ncnc2c1ncn2[C@H]1CC[C@@H](CO)O1` [2',3'-dideoxyadenosine, reference compound], the “prevention of the expression of the HIV antigen” value in data set [3] (at a similar concentration to the present compound (20 μM)) was “completely prevented the expression of the antigen”. Besides, the “toxicity to the HUT-78 cells” value in data set [4] is “significant toxicity to the HUT-78 cells”.

With `Cc1c(Sc2ccccc2)n(COCCO)c(=S)[nH]c1=O` [compound 59, 1-[(2-hydroxyethoxy)methyl]-2-thio-6-phenylthiothymine], the IC50 in data set [1] is 0.98 µM. The CC50 at 120 h in data set [2] was determined as 125 µM.

`Cc1c(Sc2cccc([N+](=O)[O-])c2)n(COCCO)c(=O)[nH]c1=O` [compound 17]: the IC50 in data set [1] was 34 µM. Moreover, the CC50 at 120 h in data set [2] was above 250 µM.

For the compound `Cc1c(Sc2ccccc2)n(COCCO)c(=O)[nH]c1=O` [compound 1, 1-[(2-hydroxyethoxy)methyl]-6-phenylthiothymine], the IC50 in data set [1] turned out to be 7 µM; in data set [3] (Human immunodeficiency virus 1, HuT78, 288 h, 12 days of incubation, indirect immunofluorescence, read-out: 50% inhibitory concentration (expression of HIV antigens)) it was 5.2 µM. Further, the CC50 at 120 h in data set [2] was above 250 µM. Also, the “prevention of the expression of the HIV antigens” value in data set [3] (20 μM, 12 days of incubation) is recorded as “completely prevented the expression of the antigens”. Besides, in data set [4], the “toxicity to the HUT-78 cells” value was “no toxicity to the HUT-78 cells was observed”.

With `Cc1c(Sc2cccc(Cl)c2)n(COCCO)c(=O)[nH]c1=O` [compound 10], the IC50 in data set [1] is 13 µM. Further, the CC50 at 120 h in data set [2] is above 250 µM.

For `Cc1c(SC2CCCCC2)n(COCCO)c(=O)[nH]c1=O` [compound 25], in data set [1], the IC50 is 18 µM. For the same compound, the CC50 at 120 h in data set [2] was above 250 µM.

As for `COc1ccccc1Sc1c(C)c(=O)[nH]c(=O)n1COCCO` [compound 12], in data set [1], the IC50 turned out to be 19 µM. In addition, in data set [2], the CC50 at 120 h is above 250 µM.

Regarding `Cc1cccc(Sc2c(C)c(=O)[nH]c(=O)n2COCCO)c1` [compound 7], the IC50 in data set [1] amounted to 5.1 µM. Besides, in data set [2], the CC50 at 120 h was above 250 µM.

With `Cc1cn([C@H]2C[C@H](N=[N+]=[N-])[C@@H](CO)O2)c(=O)[nH]c1=O` [3'-deoxy-3'-azidothymidine], the “toxicity in the host cell” value in data set [5] is “considerable toxicity in the host cell”.
